According to ChEMBL document CHEMBL3045245, “Synthesis and antitumor activities of certain novel 2-amino-9-(4-halostyryl)-4H-pyrano[3,2-h]quinoline derivatives” (Med Chem Res, 2012):
Values after ≈ are worked out from the molar mass of the structure shown.

How the values were obtained:
[1] = Cytotoxicity against Homo sapiens (human) HCT cells assessed as cell viability at 6.25 ug/ml after 48 hr by MTT assay; format: functional; conditions: read-out: Activity
MCF7 [2] = test: Cytotoxicity against Homo sapiens (human) MCF7 cells assessed as cell viability at 50 ug/ml after 48 hr by MTT assay; format: functional; conditions: MCF7, 48 h, read-out: Activity
HepG2 [3] = test: Cytotoxicity against Homo sapiens (human) HepG2 cells assessed as cell viability at 12.5 ug/ml after 48 hr by MTT assay; format: functional; conditions: HepG2, 48 h, read-out: Activity
MCF7 [4] = test: Cytotoxicity against Homo sapiens (human) MCF7 cells assessed as cell viability at 6.25 ug/ml after 48 hr by MTT assay; format: functional; conditions: MCF7, 48 h, read-out: Activity
HepG2 [5] = test: Cytotoxicity against Homo sapiens (human) HepG2 cells after 48 hr by MTT assay; format: functional, cell-based; conditions: HepG2, 48 h
[6] = Cytotoxicity against Homo sapiens (human) HCT cells after 48 hr by MTT assay; format: functional, cell-based
MCF7 [7] = test: Cytotoxicity against Homo sapiens (human) MCF7 cells assessed as cell viability at 12.5 ug/ml after 48 hr by MTT assay; format: functional; conditions: MCF7, 48 h, read-out: Activity
[8] = Cytotoxicity against Homo sapiens (human) HCT cells assessed as cell viability at 12.5 ug/ml after 48 hr by MTT assay; format: functional; conditions: read-out: Activity
[9] = Cytotoxicity against Homo sapiens (human) HCT cells assessed as cell viability at 25 ug/ml after 48 hr by MTT assay; format: functional; conditions: read-out: Activity
MCF7 [10] = test: Cytotoxicity against Homo sapiens (human) MCF7 cells assessed as cell viability at 3.125 ug/ml after 48 hr by MTT assay; format: functional; conditions: MCF7, 48 h, read-out: Activity
HepG2 [11] = test: Cytotoxicity against Homo sapiens (human) HepG2 cells assessed as cell viability at 3.125 ug/ml after 48 hr by MTT assay; format: functional; conditions: HepG2, 48 h, read-out: Activity
MCF7 [12] = test: Cytotoxicity against Homo sapiens (human) MCF7 cells assessed as cell viability at 25 ug/ml after 48 hr by MTT assay; format: functional; conditions: MCF7, 48 h, read-out: Activity
HepG2 [13] = test: Cytotoxicity against Homo sapiens (human) HepG2 cells assessed as cell viability at 1.56 ug/ml after 48 hr by MTT assay; format: functional; conditions: HepG2, 48 h, read-out: Activity
MCF7 [14] = test: Cytotoxicity against Homo sapiens (human) MCF7 cells after 48 hr by MTT assay; format: functional, cell-based; conditions: MCF7, 48 h
MCF7 [15] = test: Cytotoxicity against Homo sapiens (human) MCF7 cells assessed as cell viability at 1.56 ug/ml after 48 hr by MTT assay; format: functional; conditions: MCF7, 48 h, read-out: Activity
HepG2 [16] = test: Cytotoxicity against Homo sapiens (human) HepG2 cells assessed as cell viability at 6.25 ug/ml after 48 hr by MTT assay; format: functional; conditions: HepG2, 48 h, read-out: Activity
HepG2 [17] = test: Cytotoxicity against Homo sapiens (human) HepG2 cells assessed as cell viability at 50 ug/ml after 48 hr by MTT assay; format: functional; conditions: HepG2, 48 h, read-out: Activity
[18] = Cytotoxicity against Homo sapiens (human) HCT cells assessed as cell viability at 1.56 ug/ml after 48 hr by MTT assay; format: functional; conditions: read-out: Activity
[19] = Cytotoxicity against Homo sapiens (human) HCT cells assessed as cell viability at 50 ug/ml after 48 hr by MTT assay; format: functional; conditions: read-out: Activity
[20] = Cytotoxicity against Homo sapiens (human) HCT cells assessed as cell viability at 3.125 ug/ml after 48 hr by MTT assay; format: functional; conditions: read-out: Activity
HepG2 [21] = test: Cytotoxicity against Homo sapiens (human) HepG2 cells assessed as cell viability at 25 ug/ml after 48 hr by MTT assay; format: functional; conditions: HepG2, 48 h, read-out: Activity

| Structure (SMILES) | viability at 6.25 µg/mL [1] [%] | viability at 50 µg/mL (MCF7 [2]) [%] | viability at 12.5 µg/mL (HepG2 [3]) [%] | viability at 6.25 µg/mL (MCF7 [4]) [%] | IC50 (HepG2 [5]) [µg/mL] | IC50 [6] [µg/mL] | viability at 12.5 µg/mL (MCF7 [7]) [%] | viability at 12.5 µg/mL [8] [%] | viability at 25 µg/mL [9] [%] | viability at 3.125 µg/mL (MCF7 [10]) [%] | viability at 3.125 µg/mL (HepG2 [11]) [%] | viability at 25 µg/mL (MCF7 [12]) [%] | viability at 1.56 µg/mL (HepG2 [13]) [%] | IC50 (MCF7 [14]) [µg/mL] | viability at 1.56 µg/mL (MCF7 [15]) [%] | viability at 6.25 µg/mL (HepG2 [16]) [%] | viability at 50 µg/mL (HepG2 [17]) [%] | viability at 1.56 µg/mL [18] [%] | viability at 50 µg/mL [19] [%] | viability at 3.125 µg/mL [20] [%] | also measured |
| --- | --- | --- | --- | --- | --- | --- | --- | --- | --- | --- | --- | --- | --- | --- | --- | --- | --- | --- | --- | --- | --- |
| CCOC(=O)C1=C(N)Oc2c(ccc3ccc(/C=C/c4ccc(Br)cc4)nc23)C1c1ccc(Cl)cc1 (configuration not stated) | 48.1 | 25.6 | 36.4 | 45.5 | 3.1 (≈ 5.52 µM) | 6.1 (≈ 10.9 µM) | 41.6 | 34.4 | 24.7 | 57.9 | 49.6 | 31 | 72.1 | 5.4 (≈ 9.61 µM) | 69.4 | 39.3 | 14.6 | 72.1 | 17.6 | 66.2 | viability at 25 µg/mL (HepG2 [21]): 22.9% |
| N#CC1=C(N)Oc2c(ccc3ccc(/C=C/c4ccc(Br)cc4)nc23)C1c1ccc(Br)cc1 (configuration not stated) | 80.5 | 22.4 | 34.1 | 40.6 | 8.7 (≈ 15.6 µM) | 12.7 (≈ 22.7 µM) | 31.7 | 51 | 33.5 | 53.1 | 54.8 | 27.4 | 74.3 | 3.9 (≈ 6.97 µM) | 61.1 | 41.4 | 16 | 95.7 | 24 | 90.7 | viability at 25 µg/mL (HepG2 [21]): 25.7% |
